# Assay results as given in patent US8853193B2, “Thienopyrimidines containing a substituted alkyl group for pharmaceutical compositions” (Boehringer Ingelheim International GmbH, priority 2010, dated 2014).
# Structures can show the parent of a compound that is named as a salt.
# Biological target: human Mnk2a (Homo sapiens (Human), UniProt Q9HBH9)
# Assay: Mnk2a in vitro kinase assay (indirect competitive fluorescence polarization)
# Format: biochemical
# Settings: pre-activated GST-Mnk2a 2.5 nM, 20 μM ATP, 30 μM substrate peptide; read-out: MNK2 IC50
# Protocol: Inhibitory potency of compounds against Mnk1, Mnk2a and other kinases was assessed with assays based on a format known to those skilled in the art as the indirect (competitive) fluorescence polarization. The assay detection system comprises a small fluorophore-labeled phospho-peptide (termed ligand) bound to a phospho-specific antibody. The product generated by the kinase reaction competes with the ligand for antibody binding. Based on the larger molecular volume of the bound ligand, which results in a lower rotation rate in solution, its emitted light has a higher degree of polarization than the one from the free ligand.
# In brief, the open reading frames of human Mnk1 and Mnk2a were amplified from cDNA using the forward/reverse primer pairs
# (utilized restriction sites underlined), respectively, and cloned into the BamHI and SalI sites of the vector pGEX-4T1 (Amersham, Sweden, cat. no. 27-4580-01). These constructs allow prokaryotic expression of Mnk1 or Mnk2a as fusion protein with a N-terminal glutathione S-transferase (GST) tag, referred to as GST-Mnk1 or GST-Mnk2a. The following expression and purification procedure was identical for GST-Mnk1 and GST-Mnk2a, referring in general to GST-Mnk, when not distinguishing between the two isoforms. Expression of GST-Mnk was in E. coli BL21 (Merck Biosciences, Germany, cat. no. 69449). Cells were grown in LB-Bouillon (Merck, Germany, cat. no. 1.10285) supplemented with 100 μg/ml ampicillin (Sigma, Germany, cat. no. A9518) at 37° C. […] Cells harvested by centrifugation were resuspended in 10 ml lysis buffer (50 mM tris(hydroxymethyl)aminomethane hydrochloride (Tris/HCl, Sigma, Germany, cat. no. T5941) pH 7.5, 300 mM sodium chloride (NaCl, Sigma, Germany, cat. no. S7653), 5% (w/v) glycerol (Sigma, Germany, cat. no. G5516), 3 mM DTT dithiotreitol (DTT, Sigma, Germany, cat. no. D9779)) per gram wet weight cell pellet. Lysates were prepared by disruption of cells with a sonifier and subsequent clearing by centrifugation at 38000 g for 45 min at 4° C.
# The lysate was applied to a GSTPrep FF 16/10 column (Amersham, Sweden, cat. no. 17-5234-01) equilibrated with lysis buffer. Removal of unbound material was with 3 column volumes (CV) lysis buffer. Elution was with 2 CV of elution buffer (50 mM Tris/HCl pH 7.5, 300 mM NaCl, 5% (w/v) glycerol, 20 mM glutathione (Sigma, Germany, cat. no. G4251)). Peak fractions were pooled and the protein transferred into storage buffer (50 mM Tris/HCl pH 7.5, 200 mM NaCl, 0.1 mM ethylene glycol[…] bis(2-aminoethylether)-N,N,N′,N′-tetraacetic acid (EGTA, Aldrich, Germany, cat. no. 23, 453-2), 1 mM DTT, 10% (w/v) glycerol, 0.5 M sucrose (Sigma, Germany, cat. no. S0389) by gel filtration on a PD10 desalting column (Amersham, Sweden, cat. no. 17-0851-01). Aliquots were shock frozen in liquid nitrogen and stored at −80° C.
# Activation of Mnk1 and Mnk2a was at a concentration of 2.5 μM of either purified GST-Mnk1 or GST-Mnk2a by incubation with 150 nM pre-activated NHis-ERK2 (see ERK2 assay for preparation) and 50 μM adenosine triphosphate (ATP, Sigma, cat. no. A2699) in a buffer comprising 20 mM N-(2-hydroxyethyl)piperazine-N′-(2-ethanesulfonic acid) (HEPES, Fluka, Germany, cat. no 54459)/potassium hydroxide (KOH, Roth, Germany, cat. no 6751.1) pH 7.4, 10 mM magnesium chloride (MgCl2, Sigma, Germany, cat. no. M2670), 0.25 mM DTT, 0.05% (w/v) polyoxyethylene 20 stearylether (Brij 78, Sigma, Germany, cat. no. P4019) (HMDB buffer) for 45 min at 30° C. After the incubation, the preparation was aliquoted into single-use samples, shock frozen in liquid nitrogen, stored at −80° C. and utilized for Mnk1 or Mnk2a kinase assays as detailed below.
# The serine residue phosphorylated by Mnk kinases is underlined.
# Sequence of human Mnk2a (Q9HBH9 whole entry): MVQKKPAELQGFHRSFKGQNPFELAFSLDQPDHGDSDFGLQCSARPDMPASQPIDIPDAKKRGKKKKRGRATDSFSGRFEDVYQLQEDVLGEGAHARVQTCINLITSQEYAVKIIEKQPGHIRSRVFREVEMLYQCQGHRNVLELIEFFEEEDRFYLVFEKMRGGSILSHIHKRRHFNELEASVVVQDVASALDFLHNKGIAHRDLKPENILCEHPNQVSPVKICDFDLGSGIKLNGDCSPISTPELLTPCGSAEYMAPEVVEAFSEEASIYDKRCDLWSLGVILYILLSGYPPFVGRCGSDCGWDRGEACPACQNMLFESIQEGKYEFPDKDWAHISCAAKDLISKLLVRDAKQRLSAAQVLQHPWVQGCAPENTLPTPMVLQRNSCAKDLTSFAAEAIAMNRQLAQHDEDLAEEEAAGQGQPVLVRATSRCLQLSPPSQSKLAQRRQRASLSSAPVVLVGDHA
row,IC50 [nM],Structure (SMILES)
1,13,"Cc1c(C(=O)N[C@@H]2C[C@H]2NC(=O)OC(C)(C)C)sc2ncnc(Nc3ccc(F)cc3OC(CF)CF)c12 [Compound 23-5, Tert-butyl (1R,2R)-2-(4-2(1,3-difluoro-propan-[2,3-d]pyrimidine-6-carboxamido)cyclopropyl carbamate]"
2,10,"Cc1c(C(=O)NCCCN(C)C)sc2ncnc(Nc3ccc(F)cc3OC(CF)CF)c12 [Compound 23-6, 4-(2-(1,3-difluoro-propan-2-yloxy)-4-fluorophenylamino)-N-(3-(dimethylamino)-propyl)-5-methyl-thieno[2,3-d]-pyrimidine-6-carboxamide]"
3,17,"Cc1c(C(=O)NCCN(C)C)sc2ncnc(Nc3ccc(F)cc3OC(CF)CF)c12 [Compound 23-7, 4-(2-(1,3-difluoro-propan-2-yloxy)-4-fluorophenylamino)-N-(2-(dimethylamino)-ethyl)-5-methylthieno-[2,3-d]-pyrimidine-6-carboxamide]"
4,8,Cc1c(C(=O)NCCO)sc2ncnc(Nc3ccc(F)cc3OC(CF)CF)c12 [Compound 23-8]
5,7,"Cc1c(C(=O)NCC#CCN(C)C)sc2ncnc(Nc3ccc(F)cc3OC(CF)CF)c12 [Compound 23-9, 4-(2-(1,3-difluoro-propan-2-yloxy)-4-fluorophenylamino)-N-(4-(dimethylamino)-but-2ynyl)-5-methyl-thieno[2,3-d]pyrimidine-6-carboxamide]"
6,7,"Cc1c(C(=O)NCCCN2CCCC2)sc2ncnc(Nc3ccc(F)cc3OC(CF)CF)c12 [Compound 23-10, 4-(2-(1,3-difluoro-propan-2-yloxy)-4-fluorophenylamino)-5-methyl-N-(3-(pyrrolidin-1-yl)propyl)thieno[2,3-d]pyrimidine-6-carboxamide]"
7,7,"Cc1c(C(=O)NS(C)(=O)=O)sc2ncnc(Nc3ccc(F)cc3OC(CF)CF)c12 [Compound 24, 4-(2-(1,3-Difluoropropan-2-yloxy)-4-fluorophenylamino)-5-methyl-N-(methylsulfonyl)thieno[2,3-d]pyrimidine-6-carboxamide]"
8,790,Cc1c(C(=O)NCCCN(C)C)sc2ncnc(Nc3ccc(F)cc3OCC3CCOCC3)c12 [Compound 26-3]
9,33,"Cc1c(C(=O)O)sc2ncnc(Nc3cccnc3OCC(C)F)c12 (centres unmarked) [Compound 27-2, 4-(2-(2-Fluoropropoxy)pyridin-3-ylamino)-5-methyl-thieno[2,3-d]pyrimidine-6-carboxylic acid]"
10,58,"Cc1c(C(=O)NCCO)sc2ncnc(Nc3cccnc3OCC(C)F)c12 (centres unmarked) [Compound 27-3, 4-(2-(2-Fluoropropoxy)pyridin-3-ylamino)-N-(2-hydroxyethyl)-5-methyl-thieno[2,3-d]pyrimidine-6-carboxamide]"
11,73,"Cc1c(C(=O)NCCCN(C)C)sc2ncnc(Nc3cccnc3OCC(C)F)c12 (centres unmarked) [Compound 27-4, N-(3-(dimethylamino)-propyl)-4-(2-(2-fluoro-propoxy)pyridin-3-ylamino)-5-methyl-thieno[2,3-d]pyrimidine-6-carboxamide hydrochloride]"
12,26,"COCC(C)Oc1ncccc1Nc1ncnc2sc(C(N)=O)c(C)c12 (centres unmarked) [Compound 28-3, 4-(2-(1-Methoxygrogan-2-yloxy)gyridin-3-ylamino)-5-methyl-thieno[2,3-d]gyrimidine-6-carboxamide]"
13,78,"COCC(C)Oc1ncccc1Nc1ncnc2sc(C(=O)NCCO)c(C)c12 (centres unmarked) [Compound 28-4, N-(2-hydroxy-ethyl)-4-(2-(1-methoxy-propan-2-yloxy)pyridin-3-ylamino)-5-methylthieno-[2,3-d]-pyrimidine-6-carbox-amide]"
14,93,"COCC(C)Oc1ncccc1Nc1ncnc2sc(C(=O)NCCCN(C)C)c(C)c12 (centres unmarked) [Compound 28-5, N-(3-(di-methylamino)propyl)-4-(2-(1-methoxy-propan-2-yloxy)pyridin-3-ylamino)-5-methlthieno-[2,3-d]pyrimi-dine-6-carboxamide hydrochloride]"
15,86,"Cc1c(C(N)=O)sc2ncnc(Nc3cccnc3OCCO)c12 [Compound 29-3, 4-(2-(2-Hydroxyethoxy)pyridin-3-ylamino)-5-methylthieno[2,3-d]pyrimidine-6-carboxamide]"
16,288,"Cc1c(C(=O)NCCCN(C)C)sc2ncnc(Nc3cccnc3OCCO)c12 [Compound 29-4, N-(3-(dimethyl-amino)propyl)-4-(2-(2-hydroxy-ethoxy)pyridin-3-ylamino)-5-methylthieno[2,3-d]pyrimidine-6-carboxamide hydrochloride]"

row,IC50 [nM],Structure (SMILES)
1,20,"Cc1c(C(=O)O)sc2ncnc(Nc3cccnc3OCC(F)F)c12 [Compound 30-2, 4-(2-(2,2-Difluoroethoxy)pyridin-3-ylamino)-5-methylthieno[2,3-d]pyrimidine-6-carboxylic acid]"
2,18,"Cc1c(C(N)=O)sc2ncnc(Nc3cccnc3OCC(F)F)c12 [Compound 30-3, 4-(2-(2,2-Difluoroethoxy)pyridin-3-ylamino)-5-methyl-thieno[2,3-d]pyrimidine-6-carboxamide]"
3,48,"Cc1c(C(=O)NCCO)sc2ncnc(Nc3cccnc3OCC(F)F)c12 [Compound 30-4, 4-(2-(2,2-difluoroethoxy)-pyridin-3-ylamino)-N-(2-hydroxy-ethyl)-5-methylthieno [2,3-d]pyrimi-dine-6-carboxamide]"
4,57,"Cc1c(C(=O)NCCCN(C)C)sc2ncnc(Nc3cccnc3OCC(F)F)c12 [Compound 30-5, 4-(2-(2,2-difluoroethoxy)-pyridin-3-ylamino)-N-(3-(dimethyl-amino)propyl)-5-methyl-thieno[2,3-d]pyrimidine-6-carbox-amide hydro-chloride]"
5,11,"CCNC(=O)C(C)Oc1cc(F)ccc1Nc1ncnc2sc(C(N)=O)c(C)c12 (centres unmarked) [Compound 31-5, 4-(2-(1-(Ethylamino)-1-oxopropan-2-yloxy)-4-fluorophenylamino)-5-methyl-thieno[2,3-d]pyrimidine-6-carboxamide]"
6,13,"CCNC(=O)C(C)Oc1cc(F)ccc1Nc1ncnc2sc(C(=O)NC)c(C)c12 (centres unmarked) [Compound 31-6, 4-(2-(1-(ethylamino)-1-oxo-propan-2-yloxy)-4-fluorophenyl-amino)-N,5-dimethyl-thieno[2,3-d]pyrimidine-6-carbox-amide]"
7,19,Cc1c(C(=O)O)sc2ncnc(Nc3ccc(F)cc3OCC3(CC#N)CC3)c12 [Compound 32-2]
8,13,Cc1c(C(=O)O)sc2ncnc(Nc3ccc(F)cc3OCC(F)F)c12 [Compound 32-4]
9,8,Cc1c(C(=O)O)sc2ncnc(Nc3ccc(F)cc3OCC3CC3(F)F)c12 (centres unmarked) [Compound 32-5]
10,23,COCC(CF)Oc1cc(F)ccc1Nc1ncnc2sc(C(=O)O)c(C)c12 (centres unmarked) [Compound 32-6]
11,13,Cc1c(C(=O)O)sc2ncnc(Nc3ccc(F)cc3OCCO)c12 [Compound 32-9]
12,18,COCC(C)Oc1cc(F)ccc1Nc1ncnc2sc(C(=O)O)c(C)c12 (centres unmarked) [Compound 32-10]
13,14,Cc1c(C(=O)O)sc2ncnc(Nc3ccc(F)cc3OCCC(F)(F)F)c12 [Compound 32-11]
14,12,Cc1c(C(=O)O)sc2ncnc(Nc3ccc(F)cc3OCC(C)F)c12 (centres unmarked) [Compound 32-12]
15,65,Cc1c(C(=O)NCCO)sc2ncnc(Nc3ccc(F)cc3OCC3(CC#N)CC3)c12 [Compound 32-14]
16,78,Cc1c(C(=O)NCCCN(C)C)sc2ncnc(Nc3ccc(F)cc3OCC3(CC#N)CC3)c12 [Compound 32-15]
